Assays:
[1] = biological target: T1, Tyrosine-protein phosphatase non-receptor type 1 (Homo sapiens, UniProt P18031); experiment: Inhibition of human recombinant PTP1B-mediated pNPP hydrolysis
T1 sequence (P18031 whole entry): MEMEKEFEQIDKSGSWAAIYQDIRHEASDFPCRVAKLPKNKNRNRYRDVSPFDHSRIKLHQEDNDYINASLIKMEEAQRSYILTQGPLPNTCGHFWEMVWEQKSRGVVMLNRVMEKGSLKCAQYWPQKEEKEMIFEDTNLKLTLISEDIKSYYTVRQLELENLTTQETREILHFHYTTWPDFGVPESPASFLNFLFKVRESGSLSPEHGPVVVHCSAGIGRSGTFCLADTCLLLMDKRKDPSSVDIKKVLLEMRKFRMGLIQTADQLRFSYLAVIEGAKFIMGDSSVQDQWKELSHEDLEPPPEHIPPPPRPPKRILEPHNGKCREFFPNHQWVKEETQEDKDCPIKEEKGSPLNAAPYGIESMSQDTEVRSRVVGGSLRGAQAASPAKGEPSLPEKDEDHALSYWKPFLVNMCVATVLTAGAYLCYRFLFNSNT

HL-60 = experiment: Cytotoxicity against human HL60 cells; format: cell-based
A549 = experiment: Cytotoxicity against human A549 cells; format: cell-based

SMILES | IC50 [1] | Activity (HL-60) | Activity (A549)
COC(=O)/C1=C\C=C(\C(C)C)CC/C(C)=C/CC/C(C)=C/CC1 | 5.95 µM | Non-toxic | Non-toxic
COC(=O)/C1=C\CC[C@]2(C)O[C@H]2CC/C(C(=O)OC)=C/C=C(/C(C)C)CC1 | ≥ 53.1 µM | Non-toxic | Non-toxic
COC(=O)/C1=C\C=C(\C(C)C)CC/C(C(=O)O)=C/CC[C@]2(C)O[C@H]2CC1 | ≥ 55.2 µM | Non-toxic | Non-toxic
COC(=O)/C1=C\CC[C@](C)(O)[C@H](O)CC/C(C(=O)OC)=C\C=C(/C(C)C)CC1 | ≥ 50.7 µM | Non-toxic | Non-toxic
CC(=O)O[C@@H]1C/C(C)=C/C/C=C(/C)CC(=O)CC2=C[C@@H](OC2=O)[C@@H]1C(C)C | ≥ 53.4 µM | Non-toxic | Non-toxic
C/C1=C\C=C(\C(C)C)CC/C(C)=C/CC/C(C)=C/CC1 | 26.6 µM | Non-toxic | Non-toxic
CC(=O)O[C@@H]1C/C(C)=C/CCC(C)CC(=O)CC2=C[C@@H](OC2=O)[C@@H]1C(C)C (stereo partly drawn) | ≥ 53.1 µM | Non-toxic | Non-toxic
C/C1=C/C=C(/C(C)C)CCC2=CCC[C@](C)(OC2=O)C(=O)CC1 | 15.4 µM | Non-toxic | Non-toxic
CC(C)=C1C/C=C(\C)CC/C=C(\C)CC/C=C(\C)CC1 | ≥ 73.4 µM | Non-toxic | Non-toxic
COC(=O)/C1=C\C=C(\C(C)C)CCC2=CCC[C@](C)(OC2=O)C(=O)CC1 [KETOEMBLIDE] | 27.2 µM | Non-toxic | Non-toxic
COC(=O)/C1=C/C=C(/C(C)C)CCC2=CCC[C@](C)(OC2=O)C(=O)CC1 [SARCRASSIN E] | 6.33 µM | Non-toxic | Non-toxic

Reference: ChEMBL document CHEMBL2413037, “Cembrane diterpenoids from the soft coral Sarcophyton trocheliophorum Marenzeller as a new class of PTP1B inhibitors” (Bioorg Med Chem, 2013)
